Data from doi:10.1101/2024.07.10.602890, “H105A peptide eye drops promote photoreceptor survival in murine and human models of retinal degeneration” (bioRxiv, 2024).
Ends that are not written are not given here.

What was measured:
[1] = target: T1, recombinant human PEDF-R[1–288] (Homo sapiens, UniProt Q96AD5); test: Phospholipase A2 (PLA2) activity assay of PEDF-R with peptides; format: biochemical; conditions: purified recombinant PEDF-R[1–288] 60 nM; peptides preincubated 30 min at room temperature; EnzChek PLA2 kit; six replicate reactions
T1 construct: SUMOstar (N); His tag (implied by HisTrap purification; part of the pE-SUMOstar vector) (N); TwinStrep (C); made in house; host or cells: Escherichia coli Rosetta(DE3), co-transformed with pGro7 (groES-groEL)
T1 sequence (Q96AD5 1-288): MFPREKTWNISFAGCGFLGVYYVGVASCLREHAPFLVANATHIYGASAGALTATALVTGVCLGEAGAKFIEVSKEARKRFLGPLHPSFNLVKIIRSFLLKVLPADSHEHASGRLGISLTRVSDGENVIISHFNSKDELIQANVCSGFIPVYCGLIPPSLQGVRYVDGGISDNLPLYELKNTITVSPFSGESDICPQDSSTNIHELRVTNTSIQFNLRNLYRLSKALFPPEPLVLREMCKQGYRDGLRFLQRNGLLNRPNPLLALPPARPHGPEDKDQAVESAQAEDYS
Text: Fig. 1: Penetration and Bioavailability of PEDF Peptides 17-mer, H105A, and R99A Delivered via Eye Drops in Mouse Retinas (A) Peptide mapping and sequence. Tertiary structure of human PEDF highlighting the small peptide region with neurotrophic activity (17-mer) in blue (top). Primary structure of human PEDF showing the location of the 17-mer region (middle). Sequences of the 17-mer peptide and its variants, H105A and R99A (bottom). (B) In vivo detection of peptides. Fundus micrographs showing fluorescence from Alexa Fluor 488-labeled 17-mer, H105A, and R99A peptides in the eyes of C57Bl/6J mice at P21 days after eye drop administration of 5 μl of peptide at 1 mg/ml (left). […] Quantification of fluorescence intensity over time post-administration (right). […] (C) Quantification of peptide in retinas. […] The amount of peptide was quantified from the fluorescence in retinal extracts using standard curves (Fig. S6A). […] (D) Retinal cross-sections showing fluorescence distribution in the photoreceptor layer 1 hour after applying eye drops as in Panel B. Representative images for labeled 17-mer, H105A, and R99A peptides are shown, with magnified areas of 17-mer and H105A indicated by dotted rectangles. […] (F) Effects of 17-mer, H105A, and R99A peptides on the PLA2 activity of PEDF-R. Peptides were preincubated with recombinant human PEDF-R[1–288] for 30 min, and PLA2 activity was measured. […]

[2] = tested on: rd10 and rd10/Serpinf1−/− mice; test: BAX and BCL2 immunofluorescence of retinal sections after peptide eye drops; format: in vivo, mouse; conditions: eye drops 1 mg/ml, vs vehicle, five retinas per group
Procedure: Fig. 3: Eyedrops of 17-mer and H105A peptides decreased the BAX/BCL2 ratio in photoreceptors of rd10 and rd10/Serpinf1−/− mice (A and B) Immunostaining of retinas. Representative fluorescent micrographs of retinas from rd10 (A) and rd10/Serpinf1^−/− (B) mice treated with 17-mer or H105A peptides at 1 mg/ml via eye drops, along with vehicle-treated controls. Immunostaining was performed with antibodies against BAX or BCL2 (green), and DAPI (blue). Histograms show quantification of immunofluorescence intensity for BAX and BCL2 markers. […] Each individual data point represents the average of one retina, with statistical significance determined by unpaired t-test (***p < 0.0001, ****p < 0.00001). Scale bar = 40 μm.
Both eyes were oriented before enucleation to allow sectioning along the dorsal/ventral axis. Enucleated eyes from rd10 and rd10 × Serpinf1^−/− mice were incised in the cornea and fixed in 2.5% glutaraldehyde for 20 min and then in 10% neutral buffered formalin at 4°C for at least 48 h, followed by paraffin embedding, sectioning, and staining with either H&E or immunofluorescence procedures, as previously described ([28]). For fluorescence microscopy, antibodies, and 0.1 μg/ml DAPI were used to immunostain and nuclei counterstain the sections, respectively. Antibodies used in the study are in Table S3. Images were acquired using a ZEIS 700 confocal microscope. Fluorescence intensity was quantified using ImageJ as previously described ([14], [26]).

Row | Sequence | stimulation of PLA2 activity of PEDF-R [1] | BAX level in photoreceptors (immunofluorescence) [2] | BCL2 level in photoreceptors (immunofluorescence) [2]
1 | QRTESIIARALYYDLIS [H105A] | capable of stimulating its PLA2 activity | significantly decreased | increased
2 | QRTESIIHRALYYDLIS [17-mer] | capable of stimulating its PLA2 activity | significantly decreased | increased
